For nine compounds, IC50 results are on record in patent EP4755888A1 (ILAb Co., Ltd., priority 2023, dated 2025).

Each structure is given as a SMILES string. Some results are limits rather than exact numbers.

The target of this assay is PD-1/PD-L1 (Homo sapiens, UniProt Q9NZQ7). The experiment in a line: TR-FRET PD-1/PD-L1 binding inhibition at the molecular level (free proteins). Particulars: Tag1-PD-L1 and Tag2-PD-1 proteins, twelve concentrations from 200 nM, 2 hours at room temperature, read-out: FRET assay (IC50). Summed up: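 HTRF read-out at 665/620 nm after 2 h at room temperature. Detection used anti-Tag1 Eu cryptate plus anti-Tag2 XL665 antibodies. Tagged PD-L1 and PD-1 proteins were pre-mixed with compound across twelve […] 1:2 dilutions starting at 200 nM.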
PD-1/PD-L1, sequence (Q9NZQ7 19-238 limits assumed): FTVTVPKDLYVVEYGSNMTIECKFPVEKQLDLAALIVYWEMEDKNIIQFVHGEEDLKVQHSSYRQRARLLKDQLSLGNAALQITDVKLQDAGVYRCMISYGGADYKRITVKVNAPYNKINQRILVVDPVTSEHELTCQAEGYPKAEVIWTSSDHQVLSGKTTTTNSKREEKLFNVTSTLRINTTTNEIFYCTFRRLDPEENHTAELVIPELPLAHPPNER

As for `CC(C)(NC1CCCn2nc(C(=O)Nc3cccc(-c4cccc(NC(=O)c5ccc(CN6CC[C@@H](O)C6)cn5)c4Cl)c3Cl)cc21)C(=O)O` (stereo partly drawn) [Compound 108, 2-((2-((2,2'-dichloro-3'-(5-(((R)-3-hydroxypyrrolidin-1-yl)methyl)picolinamido)-[1,1'-biphenyl]-3-yl)carbamoyl)-4,5,6,7-tetrahydropyrazolo[1,5-a]pyridin-4-yl)amino)-2-methylpropanoic acid], the IC50 is below 10 nM.

With `Cc1c(NC(=O)c2cc3n(n2)CCCC3O)cccc1-c1cccc(-c2ccc(CNC[C@@H]3CCC(=O)N3)cc2)c1C` (stereo partly drawn) [Compound 109, N-(2,2'-dimethyl-4"-(((((S)-5-oxopyrrolidin-2-yl)methyl)amino)methyl)-[1,1':3',1"-terphenyl]-3-yl)-4-hydroxy-4,5,6,7-tetrahydropyrazolo[1,5-a]pyridine-2-carboxamide], the concentration for half-maximal inhibition (IC50) was below 10 nM.

`COc1nc(-c2cccc(-c3cccc(NC(=O)c4cc5n(n4)CCCC5O)c3C)c2C)cnc1CNC[C@@H]1CCC(=O)N1` (stereo partly drawn) [Compound 110, 4-hydroxy-N-(3'-(6-methoxy-5-(((((S)-5-oxopyrrolidin-2-yl)methyl)amino)methyl)pyrazin-2-yl)-2,2'-dimethyl-[1,1'-biphenyl]-3-yl)-4,5,6,7-tetrahydropyrazolo[1,5-a]pyridine-2-carboxamide]: the IC50 was below 10 nM.

As to `O=C1CC[C@@H](CNCc2ccc(-c3cccc(-c4cccc(NC(=O)c5cc6n(n5)CCCC6O)c4Cl)c3Cl)cc2)N1` (stereo partly drawn) [Compound 111, N-(2,2'-dichloro-4"-(((((S)-5-oxopyrrolidin-2-yl)methyl)amino)methyl)-[1,1':3',1"-terphenyl]-3-yl)-4-hydroxy-4,5,6,7-tetrahydropyrazolo[1,5-a]pyridine-2-carboxamide], the IC50 is below 10 nM.

`COc1cc(-c2cccc(-c3cccc(NC(=O)c4cc5n(n4)CCCC5O)c3C)c2C)cc(F)c1CNC[C@@H]1CCC(=O)N1` (stereo partly drawn) [Compound 112, N-(3"-fluoro-5"-methoxy-2,2'-dimethyl-4"-(((((S)-5-oxopyrrolidin-2-yl)methyl)amino)methyl)-[1,1':3',1"-terphenyl]-3-yl)-4-hydroxy-4,5,6,7-tetrahydropyrazolo[1,5-a]pyridine-2-carboxamide]: the half-inhibitory concentration (IC50) was below 10 nM.

For the compound `COc1cc(-c2cccc(-c3cccc(NC(=O)c4cc5n(n4)CCCC5O)c3C)c2C)cc(F)c1CNCCNC(C)=O` (stereo not drawn) [Compound 112-1, N-(4"-(((2-acetamidoethyl)amino)methyl)-3"-fluoro-5"-methoxy-2,2'-dimethyl-[1,1':3',1"-terphenyl]-3-yl)-4-hydroxy-4,5,6,7-tetrahydropyrazolo[1,5-a]pyridine-2-carboxamide], the IC50 was below 10 nM.

On to `COc1cc(-c2cccc(-c3cccc(NC(=O)c4cc5n(n4)CCCC5O)c3C)c2C)cc(F)c1CN1CC[C@@H](O)C1` (stereo partly drawn) [Compound 113, N-(3"-fluoro-4"-(((R)-3-hydroxypyrrolidin-1-yl)methyl)-5"-methoxy-2,2'-dimethyl-[1,1':3',1"-terphenyl]-3-yl)-4-hydroxy-4,5,6,7-tetrahydropyrazolo[1,5-a]pyridine-2-carboxamide], for which the 50% inhibitory concentration (IC50) was below 10 nM.

For the compound `COc1cc(-c2cccc(-c3cccc(NC(=O)c4cc5n(n4)CCCC5O)c3C)c2C)cc(F)c1CNCCO` (stereo not drawn) [Compound 114, N-(3"-fluoro-4"-(((2-hydroxyethyl)amino)methyl)-5"-methoxy-2,2'-dimethyl-[1,1':3',1 "-terphenyl]-3-yl)-4-hydroxy-4,5,6,7-tetrahydropyrazolo[1,5-a]pyridine-2-carboxamide], the IC50 was below 10 nM.

Take `COc1cc(-c2cccc(-c3cccc(NC(=O)c4cc5n(n4)CCCC5N4CC[C@@H](O)C4)c3C)c2C)cc(F)c1CNC(C)(C)C(=O)O` (stereo partly drawn) [Compound 115, 2-(((3-fluoro-3"-(4-((R)-3-hydroxypyrrolidin-1-yl)-4,5,6,7-tetrahydropyrazolo[1,5-a]pyridine-2-carboxamido)-5-methoxy-2',2"-dimethyl-[1,1':3',1"-terphenyl]-4-yl)methyl)amino)-2-methylpropanoic acid]: the IC50 is below 10 nM.
